Test results: patent EP0319906A2, “Novel quinoline derivatives, processes for preparation thereof and antibacterial agent containing them” (Dainippon Pharmaceutical Co., Ltd., priority 1987, dated 1989)
≈ marks a conversion by molar mass, not a printed value.

What was measured:
in vivo = conditions: mouse, po
Experimental: A suspension containing each of compounds of this invention in various concentrations was orally given to male mice (ddY) at a dose of 0.1 ml per 10 g of body weight. The number of dead mice was counted after 7 days, and the value of median lethal dose (LD₅₀, mg/kg) was calculated in accordance with the Behrens-Kaerber method.

S. aureus No. 80 = experiment: In vitro antibacterial activity, twofold agar-dilution MIC; type: cell-based; conditions: Staphylococcus aureus; S. aureus No. 80; Mueller-Hinton agar, 20-hour incubation at 37 °C; calculated for free base; read-out: minimum inhibitory concentrations (MIC)
Experimental: (§1) The figures in the table show minimum inhibitory concentrations (MIC) (µg/ml), calculated for free base. […] One loopful of an overnight culture of test organisms in Mueller-Hinton broth was inoculated onto 10 ml drug- containing agar layers in petri dishes. Bacterial inocula contained approximately 10⁶ colonyl-forming units. […] The MIC was defined as the lowest drug concentration which prevented visible bacterial growth.

E. coli P-5101 = experiment: as above; type: cell-based; conditions: Escherichia coli, P5101; E. coli P-5101; Mueller-Hinton agar, 20-hour incubation at 37 °C; calculated for free base; read-out: minimum inhibitory concentrations (MIC)
Experimental: as §1

S. aureus Terajima = experiment: as above; type: cell-based; conditions: Staphylococcus aureus; S. aureus Terajima; Mueller-Hinton agar, 20-hour incubation at 37 °C; calculated for free base; read-out: minimum inhibitory concentrations (MIC)
Experimental: as §1

S. pyogenes A65 = experiment: as above; type: cell-based; conditions: Streptococcus pyogenes; S. pyogenes A65; Mueller-Hinton agar, 20-hour incubation at 37 °C; calculated for free base; read-out: minimum inhibitory concentrations (MIC)
Experimental: as §1

E. coli NIHJ JC-2 = experiment: as above; type: cell-based; conditions: Escherichia coli, NIHJJC2; E. coli NIHJ JC-2; Mueller-Hinton agar, 20-hour incubation at 37 °C; calculated for free base; read-out: minimum inhibitory concentrations (MIC)
Experimental: as §1

S. epidermidis No. 8 = experiment: as above; type: cell-based; conditions: Staphylococcus epidermidis; S. epidermidis No. 8; Mueller-Hinton agar, 20-hour incubation at 37 °C; calculated for free base; read-out: minimum inhibitory concentrations (MIC)
Experimental: as §1

S. marcescens S-9 = experiment: as above; type: cell-based; conditions: Serratia marcescens, S9; S. marcescens S-9; Mueller-Hinton agar, 20-hour incubation at 37 °C; calculated for free base; read-out: minimum inhibitory concentrations (MIC)
Experimental: as §1

S. aureus 209 JC-1 = experiment: as above; type: cell-based; conditions: Staphylococcus aureus, 209JC1; S. aureus 209 JC-1; Mueller-Hinton agar, 20-hour incubation at 37 °C; calculated for free base; read-out: minimum inhibitory concentrations (MIC)
Experimental: as §1

P. aeruginosa 12 = experiment: as above; type: cell-based; conditions: Pseudomonas aeruginosa; P. aeruginosa 12; Mueller-Hinton agar, 20-hour incubation at 37 °C; calculated for free base; read-out: minimum inhibitory concentrations (MIC)
Experimental: as §1

[1] = test system: C. Trachomatics G/ur 1317; experiment: Antichlamydia activity, MIC in McCoy cells (inclusion bodies); type: cell-based; conditions: C. Trachomatics G/ur 1317; McCoy cells, 36 °C for 40-48 hours; calculated for free base; read-out: minimum inhibitory concentrations (MIC)
Experimental: (§2) The figures in the table show minimum inhibitory concentrations (MIC), (μg/ml), calculated for free base. Minimum inhibitory concentrations (MIC) were determined as follows. […] The cells were trypsinized and suspended in the same culture medium at a cell concentration of 1-2 x 10^5 cells/ml. One ml of the cell suspension was pipetted into flat-bottomed plastic tubes (14 mm in diameter) containing a cover slip (12 mm in diameter). The tubes were incubated in 5 % CO2-air at 36 °C for 20 hours. One-half ml of a chlamydial suspension (ca. 1-4 x 103 inclusion body forming units) was added into each tube, which was then centrifuged at 1500 x g for 60 minutes. The tubes were incubated for 1 hour at 36 °C. […] After further incubation at 36 °C for 40-48 hours, the cells on the cover glasses were stained with the Giemsa's solution. […] The MIC was defined as the lowest drug concentration where there were no inclusion bodies in all the cells on the cover slip.

C. Trachomatics G/ur 931 = experiment: as above; type: cell-based; conditions: C. Trachomatics G/ur 931; McCoy cells, 36 °C for 40-48 hours; calculated for free base; read-out: minimum inhibitory concentrations (MIC)
Experimental: as §2

[2] = test system: C. Trachomatics G/ur 1242; experiment: as above; type: cell-based; conditions: C. Trachomatics G/ur 1242; McCoy cells, 36 °C for 40-48 hours; calculated for free base; read-out: minimum inhibitory concentrations (MIC)
Experimental: as §2

[3] = test system: C. Trachomatics G/ur 1448; experiment: as above; type: cell-based; conditions: C. Trachomatics G/ur 1448; McCoy cells, 36 °C for 40-48 hours; calculated for free base; read-out: minimum inhibitory concentrations (MIC)
Experimental: as §2

Structure (SMILES): Cc1c(F)c(N2C[C@@H](C)N[C@@H](C)C2)cc2c1c(=O)c(C(=O)O)cn2C1CC1 [Compound 4, 1-cyclopropyl-6-fluoro-5-methyl-7-(cis-3,5-dimethyl-1-piperazinyl)-1,4-dihydro-4-oxoquinoline-3-carboxylic acid]
- LD50 at 7 days (in vivo; male, ddY): > 2000 mg/kg
- MIC (S. aureus No. 80): 0.05 µg/mL (≈ 0.134 µM)
- MIC (E. coli P-5101): 0.025 µg/mL (≈ 0.0669 µM)
- MIC (S. aureus Terajima): 0.025 µg/mL (≈ 0.0669 µM)
- MIC (S. pyogenes A65): 0.1 µg/mL (≈ 0.268 µM)
- MIC (E. coli NIHJ JC-2): 0.0125 µg/mL (≈ 0.0335 µM)
- MIC (S. epidermidis No. 8): 0.05 µg/mL (≈ 0.134 µM)
- MIC (S. marcescens S-9): 0.39 µg/mL (≈ 1.04 µM)
- MIC (S. aureus 209 JC-1): 0.025 µg/mL (≈ 0.0669 µM)
- MIC (P. aeruginosa 12): 0.2 µg/mL (≈ 0.536 µM)

Structure (SMILES): Cc1c(F)c(N2CCNCC2)c(F)c2c1c(=O)c(C(=O)O)cn2C1CC1 [Compound 2, 1-cyclopropyl-6,8--difluoro-5-methyl-7-(1-piperazinyl)-1,4-dihydro-4-oxoquinoline-3-carboxylic acid]
- LD50 at 168 h (in vivo; orally given to male mice (ddY), dead mice counted after 7 days, Behrens-Kaerber method, read-out: LD₅₀): > 2000 mg/kg
- MIC (S. aureus No. 80): 0.0125 µg/mL (≈ 0.0344 µM)
- MIC (E. coli P-5101): 0.0063 µg/mL (≈ 0.0173 µM)
- MIC (S. aureus Terajima): 0.025 µg/mL (≈ 0.0688 µM)
- MIC (S. pyogenes A65): 0.39 µg/mL (≈ 1.07 µM)
- MIC (E. coli NIHJ JC-2): 0.0063 µg/mL (≈ 0.0173 µM)
- MIC (S. epidermidis No. 8): 0.025 µg/mL (≈ 0.0688 µM)
- MIC (S. marcescens S-9): 0.1 µg/mL (≈ 0.275 µM)
- MIC (S. aureus 209 JC-1): 0.025 µg/mL (≈ 0.0688 µM)
- MIC (P. aeruginosa 12): 0.2 µg/mL (≈ 0.55 µM)
- MIC [1]: 0.1 µg/mL (≈ 0.275 µM)
- MIC (C. Trachomatics G/ur 931): 0.05 µg/mL (≈ 0.138 µM)
- MIC [2]: 0.1 µg/mL (≈ 0.275 µM)
- MIC [3]: 0.1 µg/mL (≈ 0.275 µM)

Structure (SMILES): Cc1c(F)c(N2CCNCC2)c(C#N)c2c1c(=O)c(C(=O)O)cn2C1CC1 [Compound D, 8-cyano-1-cyclopropyl-6-fluoro-5-methyl-7-(1-piperazinyl)-1,4-dihydro-4-oxoquinoline-3-carboxylic acid, reference compound]
- MIC (S. aureus No. 80): 0.1 µg/mL (≈ 0.27 µM)
- MIC (E. coli P-5101): 0.0125 µg/mL (≈ 0.0337 µM)
- MIC (S. aureus Terajima): 0.1 µg/mL (≈ 0.27 µM)
- MIC (S. pyogenes A65): 1.56 µg/mL (≈ 4.21 µM)
- MIC (E. coli NIHJ JC-2): 0.0125 µg/mL (≈ 0.0337 µM)
- MIC (S. epidermidis No. 8): 0.1 µg/mL (≈ 0.27 µM)
- MIC (S. marcescens S-9): 0.39 µg/mL (≈ 1.05 µM)
- MIC (S. aureus 209 JC-1): 0.1 µg/mL (≈ 0.27 µM)
- MIC (P. aeruginosa 12): 0.39 µg/mL (≈ 1.05 µM)
- MIC [1]: 3.13 µg/mL (≈ 8.45 µM)
- MIC (C. Trachomatics G/ur 931): 1.56 µg/mL (≈ 4.21 µM)
- MIC [2]: 3.13 µg/mL (≈ 8.45 µM)
- MIC [3]: 3.13 µg/mL (≈ 8.45 µM)

Structure (SMILES): O=C(O)c1cn(C2CC2)c2c(F)c(N3CCNCC3)c(F)cc2c1=O [Compound B, 1-cyclopropyl-6,8-difluoro-7-(1-piperazinyl)-1,4-dihydro-4-oxoquinoline-3-carboxylic acid, reference compound]
- MIC (S. aureus No. 80): 0.2 µg/mL (≈ 0.573 µM)
- MIC (E. coli P-5101): 0.0063 µg/mL (≈ 0.018 µM)
- MIC (S. aureus Terajima): 0.1 µg/mL (≈ 0.286 µM)
- MIC (S. pyogenes A65): 0.39 µg/mL (≈ 1.12 µM)
- MIC (E. coli NIHJ JC-2): 0.0063 µg/mL (≈ 0.018 µM)
- MIC (S. epidermidis No. 8): 0.1 µg/mL (≈ 0.286 µM)
- MIC (S. marcescens S-9): 0.05 µg/mL (≈ 0.143 µM)
- MIC (S. aureus 209 JC-1): 0.1 µg/mL (≈ 0.286 µM)
- MIC (P. aeruginosa 12): 0.1 µg/mL (≈ 0.286 µM)
- MIC [1]: 0.39 µg/mL (≈ 1.12 µM)
- MIC (C. Trachomatics G/ur 931): 0.39 µg/mL (≈ 1.12 µM)
- MIC [2]: 0.39 µg/mL (≈ 1.12 µM)
- MIC [3]: 0.39 µg/mL (≈ 1.12 µM)
